We go through two molecules from article PMC6248945, “Antibacterial properties of the pituitary adenylate cyclase-activating polypeptide: A new human antimicrobial peptide” (PLoS ONE, 2018).

In brackets after ≈: the same amount, converted by molar mass. Where a SMILES comes first, the peptide text is derived from it. [ ]: non-standard residue; d: D form. Tic = O=C(O)[C@@H]1Cc2ccccc2CN1 Where only a bound is given, the exact number is not on record here.

The subject of data set [1] is Pseudomonas aeruginosa (ATCC33350-Sero-2). The conditions noted are these: ATCC33350, 20 h.
Data set [2] relates to Burkholderia cenocepacia (LMG19240). The conditions noted are these: CLSI microdilution, MHB, 37 °C, 20h, OD read-out; at least triplicate.
Data set [3] concerns Bacillus subtilis (PY79). The note with it: PY79, 20 h.
In data set [4] the test system is Actinobacillus pleuropneumoniae (4074). The conditions noted are these: 20 h.
Data set [5] deals with Burkholderia cenocepacia (LMG18829). The note with it: LMG18829, 20 h.
Data set [6] has as its system Bacillus subtilis (2597). The note with it: 2597, 20 h.
Data set [7] has as its system Bacillus circulans (LSPQ3543). The conditions noted are these: 20 h.
Data set [8] relates to Burkholderia cenocepacia (CEP0511 Gvar3b). The note with it: CLSI microdilution, MHB, 37 °C, 20h, OD read-out; at least triplicate.
The conditions of data set [9]: relative to PACAP38; cited from earlier work.
In data set [10] the test system is Escherichia coli (O157 :H7). The conditions noted are these: CLSI microdilution, MHB, 37 °C, 20h, OD read-out; at least triplicate. Background: In broth dilution the organism is exposed to a series of concentrations in liquid medium.
Data set [11] deals with DPP-IV. Also noted: method as in PMID 18353507. The conditions noted are these: cited from earlier work.
For data set [12], the system named is Serratia marcescens (ATCC14756). The conditions noted are these: ATCC14756, 20 h.
In data set [13] the test system is Escherichia coli ATCC25922. The note with it: ATCC25922, 20 h.
Data set [14] concerns Bacillus cereus (ATCC11778). The conditions noted are these: ATCC11778, 20 h.
Data set [15] deals with Pseudomonas fluorescens (MF37). The conditions noted are these: 20 h.
Data set [16] deals with Staphylococcus aureus (Newman). The conditions noted are these: 20 h.
The test system of data set [17] is Staphylococcus aureus (ATCC6538#P). The conditions noted are these: ATCC6538, 20 h.
In data set [18] the test system is Escherichia coli (JM109). Briefly: MIC, CLSI microdilution. The data set is classed as cell-based. The conditions noted are these: MHB, 37 °C, 20h, OD read-out, at least triplicate. On the procedure:
Assays were performed according to the CLSI microdilution method. Briefly, the bacterial strains were inoculated and allowed to reach an OD600 of 0.08–0.13 prior to dilution to 10^6 CFU/mL in Mueller-Hinton broth (MHB). A bacterial suspension (50 μL) was then added to each well of a 96-well microplate containing serially diluted peptide solutions (50 μL in MHB) and incubated at 37 °C for 20h. A well containing sterilized medium was used as a sterility control and another well containing no added peptide served as a growth control.

The test system of data set [19] is Bacillus amyloliquefaciens (LMG22478). The note with it: LMG22478, 20 h.
Data set [20] has as its system Pseudomonas aeruginosa (PA14). The note with it: PA14, 20 h.
Data set [21] deals with Pseudomonas putida (KT2440). The conditions noted are these: 20 h.
For data set [22], the system named is Burkholderia thailendensis (ATCC700388). The conditions noted are these: CLSI microdilution, MHB, 37 °C, 20h, OD read-out; at least triplicate.
Data set [23] deals with Bacillus velezensis. The note with it: 20 h.
In data set [24] the test system is Burkholderia cenocepacia (J2315). The note with it: 20 h.
Data set [25] relates to Burkholderia cenocepacia (K56-2). The conditions noted are these: 20 h.

Turning to `CCCCCC(=O)N[C@@H](Cc1c[nH]cn1)C(=O)N[C@@H](CO)C(=O)N[C@@H](CC(=O)O)C(=O)NCC(=O)N[C@H](C(=O)N[C@@H](Cc1ccccc1)C(=O)N[C@H](C(=O)N[C@@H](CC(=O)O)C(=O)N[C@@H](CO)C(=O)N[C@@H](Cc1ccc(O)cc1)C(=O)N[C@@H](CO)C(=O)N[C@@H](CCCNC(=N)N)C(=O)N[C@@H](Cc1ccc(O)cc1)C(=O)N[C@@H](CCCNC(=N)N)C(=O)N[C@@H](CCCCN)C(=O)N[C@@H](CCC(N)=O)C(=O)N[C@@H](CCSC)C(=O)N[C@@H](C)C(=O)N[C@H](C(=O)N[C@@H](CCCCN)C(=O)N[C@@H](CCCCN)C(=O)N[C@@H](Cc1ccc(O)cc1)C(=O)N[C@@H](CC(C)C)C(=O)N[C@@H](C)C(=O)N[C@@H](C)C(=O)N[C@H](C(=O)N[C@@H](CC(C)C)C(=O)NCC(=O)N[C@@H](CCCCN)C(=O)N[C@@H](CCCNC(=N)N)C(=O)N[C@@H](Cc1ccc(O)cc1)C(=O)N[C@@H](CCCCN)C(=O)N[C@@H](CCC(N)=O)C(=O)N[C@@H](CCCNC(=N)N)C(=O)N[C@H](C(=O)N[C@@H](CCCCN)C(=O)N[C@@H](CC(N)=O)C(=O)N[C@@H](CCCCN)C(N)=O)C(C)C)C(C)C)C(C)C)[C@@H](C)O)[C@@H](C)CC` [compound 2, N-hexanoyl-PACAP38], in data set [1], the “MIC, Pseudomonas aeruginosa (ATCC33350-Sero-2)” value was >200 µg/mL. Also, the “MIC, Burkholderia cenocepacia (LMG19240)” value in data set [2] was >200 µg/mL. Also, the “MIC, Bacillus subtilis (PY79)” value in data set [3] turned out to be 12 µg/mL (≈ 2.59 µM). The “MIC, Actinobacillus pleuropneumoniae” value in data set [4] amounted to 232 µg/mL (≈ 50.1 µM). The “MIC, Burkholderia cenocepacia (LMG18829)” value in data set [5] is >200 µg/mL. The “MIC, Bacillus subtilis (2597)” value in data set [6] was determined as 154 µg/mL (≈ 33.2 µM). In addition, the “MIC, Bacillus circulans (LSPQ3543)” value in data set [7] was 58 µg/mL (≈ 12.5 µM). In [8], the “MIC, Burkholderia cenocepacia (CEP0511 Gvar3b)” value was >200 µg/mL. Besides, in data set [9], the “Metabolic stability in human plasma” value was “improved metabolic stability”. Further, in data set [10], the “MIC, Escherichia coli (O157 :H7)” value was >200 µg/mL. The “Metabolic stability against DPP-IV” value in data set [11] is recorded as “improved metabolic stability”. Also, in [12], the “MIC, Serratia marcescens (ATCC14756)” value is >200 µg/mL. The “MIC, Escherichia coli ATCC25922” value in data set [13] was >200 µg/mL. Moreover, the “MIC, Bacillus cereus (ATCC11778)” value in [14] is >200 µg/mL. Moreover, the “MIC, Pseudomonas fluorescens (MF37)” value in [15] is >200 µg/mL. In addition, the “MIC, Staphylococcus aureus (Newman)” value in data set [16] is >200 µg/mL. Also, the “MIC, Staphylococcus aureus (ATCC6538#P)” value in data set [17] was >200 µg/mL. Further, in data set [18], the “MIC, Escherichia coli (JM109)” value was determined as 116 µg/mL (≈ 25 µM). In addition, the “MIC, Bacillus amyloliquefaciens” value in data set [19] was found to be 26 µg/mL (≈ 5.61 µM). In [20], the “MIC, Pseudomonas aeruginosa (PA14)” value was >200 µg/mL. The “MIC, Pseudomonas putida (KT2440)” value in [21] is 77 µg/mL (≈ 16.6 µM). Besides, the “MIC, Burkholderia thailendensis (ATCC700388)” value in data set [22] was >200 µg/mL. The “MIC, Bacillus velezensis” value in [23] is 87 µg/mL (≈ 18.8 µM). For the same molecule, the “MIC, Burkholderia cenocepacia (J2315)” value in data set [24] worked out at 10 µg/mL (≈ 2.16 µM). For the same molecule, the “MIC, Burkholderia cenocepacia (K56-2)” value in data set [25] was >200 µg/mL.

Consider `CC[C@H](C)[C@H](NC(=O)CNC(=O)[C@H](CC(=O)O)NC(=O)[C@H](CO)NC(=O)[C@@H](N)Cc1c[nH]cn1)C(=O)N1Cc2ccccc2C[C@H]1C(=O)N[C@H](C(=O)N[C@@H](CC(=O)O)C(=O)N[C@@H](CO)C(=O)N[C@@H](Cc1ccc(O)cc1)C(=O)N[C@@H](CO)C(=O)N[C@@H](CCCNC(=N)N)C(=O)N[C@@H](Cc1ccc(O)cc1)C(=O)N[C@@H](CCCNC(=N)N)C(=O)N[C@@H](CCCCN)C(=O)N[C@@H](CCC(N)=O)C(=O)N[C@@H](CCSC)C(=O)N[C@@H](C)C(=O)N[C@H](C(=O)N[C@@H](CCCCN)C(=O)N[C@@H](CCCCN)C(=O)N[C@@H](Cc1ccc(O)cc1)C(=O)N[C@@H](CC(C)C)C(=O)N[C@@H](C)C(=O)N[C@@H](C)C(=O)N[C@H](C(=O)N[C@@H](CC(C)C)C(=O)NCC(=O)N[C@@H](CCCCN)C(=O)N[C@@H](CCCNC(=N)N)C(=O)N[C@@H](Cc1ccc(O)cc1)C(=O)N[C@@H](CCCCN)C(=O)N[C@@H](CCC(N)=O)C(=O)N[C@@H](CCCNC(=N)N)C(=O)N[C@H](C(=O)N[C@@H](CCCCN)C(=O)N[C@@H](CC(N)=O)C(=O)N[C@@H](CCCCN)C(N)=O)C(C)C)C(C)C)C(C)C)[C@@H](C)O` [compound 7, [Tic^6]PACAP38] (H-HSDGI[Tic]TDSYSRYRKQMAVKKYLAAVLGKRYKQRVKNK-NH2), for which, in [1], the “MIC, Pseudomonas aeruginosa (ATCC33350-Sero-2)” value was >200 µg/mL. Besides, in data set [2], the “MIC, Burkholderia cenocepacia (LMG19240)” value was >200 µg/mL. Further, the “MIC, Bacillus subtilis (PY79)” value in [3] stood at 7 µg/mL (≈ 1.54 µM). The “MIC, Actinobacillus pleuropneumoniae” value in data set [4] is >200 µg/mL. In addition, in data set [5], the “MIC, Burkholderia cenocepacia (LMG18829)” value is >200 µg/mL. In [6], the “MIC, Bacillus subtilis (2597)” value is >200 µg/mL. In addition, in [7], the “MIC, Bacillus circulans (LSPQ3543)” value was 6 µg/mL (≈ 1.32 µM). Besides, in [8], the “MIC, Burkholderia cenocepacia (CEP0511 Gvar3b)” value was >200 µg/mL. In addition, in [10], the “MIC, Escherichia coli (O157 :H7)” value is >200 µg/mL. Besides, the “MIC, Serratia marcescens (ATCC14756)” value in data set [12] was >200 µg/mL. Besides, in [13], the “MIC, Escherichia coli ATCC25922” value was >200 µg/mL. In data set [14], the “MIC, Bacillus cereus (ATCC11778)” value is >200 µg/mL. For the same molecule, in [15], the “MIC, Pseudomonas fluorescens (MF37)” value was >200 µg/mL. For the same molecule, the “MIC, Staphylococcus aureus (Newman)” value in data set [16] was >200 µg/mL. Moreover, the “MIC, Staphylococcus aureus (ATCC6538#P)” value in [17] is >200 µg/mL. In addition, in data set [18], the “MIC, Escherichia coli (JM109)” value was >200 µg/mL. In addition, the “MIC, Bacillus amyloliquefaciens” value in [19] stood at 21 µg/mL (≈ 4.62 µM). Further, the “MIC, Pseudomonas aeruginosa (PA14)” value in data set [20] is >200 µg/mL. Further, in data set [21], the “MIC, Pseudomonas putida (KT2440)” value came to 33 µg/mL (≈ 7.26 µM). Besides, the “MIC, Burkholderia thailendensis (ATCC700388)” value in data set [22] is >200 µg/mL. The “MIC, Bacillus velezensis” value in data set [23] is 71 µg/mL (≈ 15.6 µM). In [24], the “MIC, Burkholderia cenocepacia (J2315)” value is 2 µg/mL (≈ 0.44 µM). The “MIC, Burkholderia cenocepacia (K56-2)” value in data set [25] is >200 µg/mL.
